Results as given in patent US4167511A, “Methylsilacyclopentenyl-containing silylating agents and method therefor” (Dow Corning Corporation, priority 1978, dated 1979).

Experiment: Silylating power: half-life of silylating agent in excess isopropyl alcohol at 35° C. (1H n.m.r.)
Format: physicochemical
Conditions: for Half-life in Excess Isopropanol: 0.1 ml. silylating agent in 0.5 ml. anhydrous isopropyl alcohol, 35° C., n.m.r.
From the text: The compositions of this invention have unexpected silylating power. By the terms silylating and silylation it is meant a process wherein an active-hydrogen, i.e. one bond to an oxygen, sulfur or nitrogen atom, in a compound is replaced with a hydrocarbon-substituted silyl radical. Silylation, according to the process of this invention proceeds rapidly and, in many cases, essentially quantitatively thereby replacing an active-hydrogen with a methylsilacyclopentenyl radical. By silylating power it is meant the ability of a silylating agent to silylate isopropyl alcohol as indicated by the half-life of the silylating agent in excess isopropyl alcohol at 35° C., using standard chemical kinetic measuring methods hereinafter described. Silylating power is inversely related to said half-life.
Standard nuclear magnetic resonance (n.m.r.) tubes, 5 mm. O.D.×205 mm. long, were first charged with 0.1 ml. of the silylating agents listed in the Table and then with 0.5 ml. of anhydrous isopropyl alcohol using a dry box to insure anhydrous conditions. Immediately after the addition of isopropyl alcohol the tubes were stoppered, inverted at least once to mix the reactants, removed from the dry box, and, within 30 seconds after the addition of isopropyl alcohol, were placed in a varian A-60 ^1 H n.m.r. spectometer at 35° C. The n.m.r. spectrometer was preset to record the signal of the hydrogen atoms in the silicon-bonded methyl group. In repeat experiments the n.m.r. spectrometer was preset to record the signal of the hydrogen atoms in the methyl groups of N-methylacetamideor the nitrogen-bound hydrogen atom in epsilon-caprolactam. Where possible the reaction was followed by taking several readings of the appropriate n.m.r. signal intensity over a period of time.
The compositions of this invention have a half-life which is too short to measure by this technique since they are completely reacted before the reaction mixture is placed in the n.m.r. spectrometer.

Row | Compound | Half-life in Excess Isopropanol | silylating power (compared in words with triorganosilyl analogs, inversely related to half-life in excess isopropyl alcohol at 35° C.)
1 | CC(=O)N(C)[Si](C)(C)c1ccccc1 | 55 min | 
2 | CC(=O)N(C)[Si](C)(C)CCC(F)(F)F | 40 min | 
3 | C=C[Si](C)(C)N(C)C(C)=O | 240 min | 
4 | methylsilacyclopentenyl-N-methylacetamide |  | greater than that of trimethylsilyl-N-methylacetamide, dimethylvinylsilyl-N-methylacetamide, dimethylphenylsilyl-N-methylacetamide and dimethyl-3,3,3-trifluoropropylsllyl-N-methylacetamide
